Test results: the SangsterLogP compilation

Row | Structure (SMILES) | logP
1 | Cc1ccccc1C=O | 2.26
2 | COc1ccccc1N(C)C | 1.63
3 | CC(=O)Nc1cccc(O)c1 | 0.73
4 | CC(=O)Nc1ccccc1O | 0.72
5 | CSc1ccc(O)cc1 | 1.78
6 | CS(=O)(=O)c1ccc(N)cc1 | -0.12
7 | Oc1cccc(-c2ccccc2)c1 | 3.23
8 | O=C(O)Cc1ccc(C(F)(F)F)cc1 | 2.45
9 | CSc1ccc(C(=O)O)cc1 | 2.74
10 | CC(=O)Oc1cccc(C)c1 | 2.09
11 | O=C(O)c1ccc(Oc2ccccc2)cc1 | 3.21
12 | CSc1cccc(N)c1 | 1.45
13 | COc1ccc(N(C)C)cc1 | 1.42
14 | Cc1cccc(N(C)C)c1 | 2.8
15 | CS(=O)(=O)c1ccc(C(=O)O)cc1 | 0.67
16 | Nc1ccccc1Oc1ccccc1 | 2.46
17 | CC(=O)Nc1ccccc1C(=O)O | 1.73
18 | COc1ccccc1Oc1ccccc1 | 2.92
19 | N#Cc1ccccc1O | 1.59
20 | CC(=O)Oc1ccc(C)cc1 | 2.11
21 | Nc1ccc(Oc2ccccc2)cc1 | 2.36
22 | O=Cc1ccc(OCC(=O)O)cc1 | 0.79
23 | CSc1ccccc1N | 1.2
